Measurements reported in patent US11674967B2, “Method of identifying potential inhibitors of APO TNFα trimers” (UCB BIOPHARMA SRL, priority 2015, dated 2023).

What was measured:
[1] = molecular target: T1, TNFα (Homo sapiens, UniProt P01375); test: Mass spectrometric analysis of compound binding to TNFα (soft ionisation)
Procedure: Mass spectrometry was typically performed using a Waters LCT-premier Time-of-Flight mass spectrometer or a Waters SynaptG2 Q-TOF mass spectrometer. Samples were introduced using an Advion Triversa Nanomate nanoflow infusion device which replaces the conventional spectrometer source, sample injection was via an “A” series chip with […] nozzle size at a nominal flow rate of 100 nl/min. Further modifications to the Waters LCT-premier Time-of-Flight mass spectrometer include a customised source cooling device allowing precise control of the source temperature and a commercial pressure regulation device giving precise control over the vacuum conditions in the source region. Together these modifications help retain the TNFα trimer in a native, folded conformation and facilitate the detection of complexes formed with test compounds of weak affinities.
Ions were generated using standard positive ion electrospray conditions resulting in multiple charging of TNFα.
Mass spectrometry is very sensitive to the buffer salts present in the protein sample. Typical buffer salts such as potassium or sodium phosphates have a severely detrimental affect on ionisation. Accordingly protein samples were pre-treated to remove these salts using a Zeba desalt spin column, the protein being exchanged into a mass spectrometry compatible buffer system, typically 50 mM Ammonium Acetate at pH 6.8.
Typically the test compounds were presented as 10 mM DMSO stock solutions such that when they are incubated with TNFα in solution the final DMSO concentration is 5%. […] This is evidenced by the changes in the number of charges acquired by the protein under the various conditions described.
Test compounds were prepared as 10 mM solutions in dimethylsulphoxide (DMSO). Therefore, it was necessary to establish the effect of DMSO on the native TNFα trimer in the absence of a test compound. […]
Incubation of a library of test compounds, including the compound of formula (3) with TNFα was monitored by mass spectrometry under soft ionization conditions. […]
Target sequence in this assay (P01375 77-233 limits assumed): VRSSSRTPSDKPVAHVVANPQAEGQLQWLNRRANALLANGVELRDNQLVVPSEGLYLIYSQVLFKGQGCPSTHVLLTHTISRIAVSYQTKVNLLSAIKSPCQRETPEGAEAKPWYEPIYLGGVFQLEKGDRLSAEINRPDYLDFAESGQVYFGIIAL

[2] = molecular target: T1, TNFα; test: LC-MS of size exclusion fractions of TNFα, TNF-R and compound; format: binding; design: purchased R&D Systems; details: either order of addition
Procedure: Fractions from size exclusion chromatographic separation of mixtures of TNFα, TNF-R and the compound of formula (3) were analysed by liquid chromatography-mass spectrometry (LC-MS). Two samples were prepared for size exclusion chromatography.
Target sequence in this assay (P01375 77-233 limits assumed): as above
Target sequence in this assay (P19438 30-211 partner limits assumed): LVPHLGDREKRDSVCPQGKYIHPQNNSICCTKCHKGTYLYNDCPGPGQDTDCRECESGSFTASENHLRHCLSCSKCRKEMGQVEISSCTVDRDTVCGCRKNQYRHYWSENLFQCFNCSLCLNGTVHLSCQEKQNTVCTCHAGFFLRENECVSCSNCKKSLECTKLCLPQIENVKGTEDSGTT

[3] = test system: TNFR2; test: Membrane TNF - TNFR2 signalling (NS0-mTNF cells with expanded primary human T cells); format: cell-based; details: compound bound to membrane TNFα on NS0 cells
Procedure: A murine B cell line (NS0-mTNF) stably expressing non-cleavable human membrane TNF due to a mutation at the TACE cleavage site was used to trigger TNFR2 signalling in PHA-L and IL-2 expanded primary human T cells. […] TNFR1 was also present on these cells but was blocked using a UCB mouse anti-human-TNFR1 antibody 5R16.
NS0-mTNF cells were cultured with 10 μM NCEs for 1 hour to allow binding of Compounds to membrane TNF. T cells were then mixed with the NS0-mTNF cells and following a brief spin to allow cell-cell contact, cells were incubated for 5 min and then lysed in lysis buffer. […] First TRAF-2 recruitment to the TNFR2 receptor was measured in Co-immunoprecipitation experiments as a measure of membrane proximal signalling. After lysis of cells TNFR2 was isolated from the lysate using polyclonal goat anti-human TNFR2 antibodies followed by protein G sepharose bead purification. TNFR2 associated TRAF-2 was then measured in immunoblots after running the purified TNFR2 preparation on a SDS-PAGE. In addition, the whole cell lysate was also sampled for the presence of pNFκB using SDS-PAGE and pNFκB specific immunoblots.
• PBMC from 3 three different donors were cultured in 6 well plates with 10×10^6 cells per well in 5 ml of RPMI1640 supplemented with 10% FCS, 1% human serum, HEPES GlutaMAX, 25 U/ml hIL-2 (Roche) and 2 μg/ml PHA-L (Sigma) to grow out T cells • after 3 days cells were resuspended and cultured in 75 cm^2 flasks with the same media as above, but lacking the PHA-L • growth of culture was monitored and media was changed every 3 days.
This is a 2× solution • prepare 500 μl of 10×10^6 NS0-wt cells • After 1 h add 500 μl human T cells (50×10^6 cells/test) in human media at 37° C. T cells were preincubated for 15 min @37° C. with 50 μg/ml 5R16 anti-TNFR1 Fab-PEG to block signalling via TNFR1 prior adding to the NS0 cells. […]

SMILES	effect on trimeric TNFα (charge state envelope) ([1]; 5% v/v DMSO)	binding to the monomeric form of TNFα ([1]; soft ionization)	stoichiometry of binding ([1]; soft ionization)	binding to TNFα in the presence of TNF-R [2]	TNFR2 specific membrane proximal (TRAF-2 recruitment to TNFR2) and downstream (pNFκB) signalling [3]
Cc1ccc(C)c(Cn2c(C(O)c3ccncc3)nc3ccccc32)c1 (centres unmarked) [Compound 3]	stabilization of the trimeric TNFα complex	not observed to bind	one molecule of the compound of formula (3) per TNFα trimer	binds to TNFα even in the presence of TNF-R	
Cc1ccc(C)c(Cn2c(C(O)c3ccncc3)nc3ccc(-c4cnn(C)c4)cc32)c1 (centres unmarked) [Compound 15]					does not impair
